Laboratory results published in PubChem BioAssay (NCI).
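1) Cells in 96-well plates. 2) Compound, 48 h, 5 concentrations. 3) Linear interpolation between surrounding doses. 4) Unreached endpoint = highest concentration. Abbreviation: GI50, concentration required for 50% inhibition of growth. TGI marks complete inhibition of growth.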

Experiments:
Experiment in all cases: NCI tumour cell line growth inhibition, 48 h
KM12 colon = tested on: KM12 colon
A498 renal = tested on: A498 renal
T-47D breast = tested on: T-47D breast
HL-60(TB) leukemia = tested on: HL-60(TB) leukemia
A549 NSCLC = tested on: A549 NSCLC
DU-145 prostate = tested on: DU-145 prostate
SF-268 CNS = tested on: SF-268 CNS
OVCAR-3 ovarian = tested on: OVCAR-3 ovarian
SK-MEL-28 melanoma = tested on: SK-MEL-28 melanoma
SK-MEL-5 melanoma = tested on: SK-MEL-5 melanoma
HCC-2998 colon = tested on: HCC-2998 colon
HOP-92 NSCLC = tested on: HOP-92 NSCLC
MALME-3M melanoma = tested on: MALME-3M melanoma
LOX IMVI melanoma = tested on: LOX IMVI melanoma
U251 CNS = tested on: U251 CNS
BT-549 breast = tested on: BT-549 breast
NCI-H522 lung = tested on: NCI-H522 lung
HOP-62 NSCLC = tested on: HOP-62 NSCLC
SNB-75 CNS = tested on: SNB-75 CNS
RXF 393 renal = tested on: RXF 393 renal
SW-620 colon = tested on: SW-620 colon
NCI-H23 lung = tested on: NCI-H23 lung
EKVX NSCLC = tested on: EKVX NSCLC
OVCAR-8 ovarian = tested on: OVCAR-8 ovarian
786-0 renal = tested on: 786-0 renal
HS 578T breast = tested on: HS 578T breast
SK-MEL-2 melanoma = tested on: SK-MEL-2 melanoma
SF-295 CNS = tested on: SF-295 CNS
UO-31 renal = tested on: UO-31 renal
SNB-19 CNS = tested on: SNB-19 CNS
HT29 colon = tested on: HT29 colon
HCT-116 colon = tested on: HCT-116 colon
SK-OV-3 ovarian = tested on: SK-OV-3 ovarian
UACC-257 melanoma = tested on: UACC-257 melanoma
MDA-MB-435 = tested on: MDA-MB-435
COLO 205 colon = tested on: COLO 205 colon
NCI/ADR-RES ovarian = tested on: NCI/ADR-RES ovarian
RPMI-8226 leukemia = tested on: RPMI-8226 leukemia
MDA-MB-231 breast = tested on: MDA-MB-231 breast
K-562 leukemia = tested on: K-562 leukemia
TK-10 renal = tested on: TK-10 renal
MOLT-4 leukemia = tested on: MOLT-4 leukemia
UACC-62 melanoma = tested on: UACC-62 melanoma
NCI-H460 lung = tested on: NCI-H460 lung
IGROV1 ovarian = tested on: IGROV1 ovarian
CCRF-CEM leukemia = tested on: CCRF-CEM leukemia
ACHN renal = tested on: ACHN renal
SR leukemia = tested on: SR leukemia
OVCAR-4 ovarian = tested on: OVCAR-4 ovarian
M14 melanoma = tested on: M14 melanoma
CAKI-1 renal = tested on: CAKI-1 renal

Structure (SMILES): O=[N+]([O-])c1cc([N+](=O)[O-])c(Cl)c(Cl)c1Cl
- GI50 (KM12 colon): 1850 nM
- TGI (KM12 colon): 3760 nM
- GI50 (A498 renal): 5200 nM
- TGI (A498 renal): 17900 nM
- GI50 (T-47D breast): 631 nM
- TGI (T-47D breast): 2840 nM
- GI50 (HL-60(TB) leukemia): 2070 nM
- TGI (HL-60(TB) leukemia): 4690 nM
- GI50 (A549 NSCLC): 3160 nM
- TGI (A549 NSCLC): 13900 nM
- GI50 (DU-145 prostate): 1570 nM
- TGI (DU-145 prostate): 2980 nM
- GI50 (SF-268 CNS): 1730 nM
- TGI (SF-268 CNS): 3920 nM
- GI50 (OVCAR-3 ovarian): 1180 nM
- TGI (OVCAR-3 ovarian): 2400 nM
- GI50 (SK-MEL-28 melanoma): 1670 nM
- TGI (SK-MEL-28 melanoma): 3060 nM
- GI50 (SK-MEL-5 melanoma): 1750 nM
- TGI (SK-MEL-5 melanoma): 3350 nM
- GI50 (HCC-2998 colon): 2840 nM
- TGI (HCC-2998 colon): 8320 nM
- GI50 (HOP-92 NSCLC): 1680 nM
- TGI (HOP-92 NSCLC): 3150 nM
- GI50 (MALME-3M melanoma): 1700 nM
- TGI (MALME-3M melanoma): 3770 nM
- GI50 (LOX IMVI melanoma): 516 nM
- TGI (LOX IMVI melanoma): 1860 nM
- GI50 (U251 CNS): 1590 nM
- TGI (U251 CNS): 3020 nM
- GI50 (BT-549 breast): 8840 nM
- TGI (BT-549 breast): 21000 nM
- GI50 (NCI-H522 lung): 230 nM
- TGI (NCI-H522 lung): 605 nM
- GI50 (HOP-62 NSCLC): 1670 nM
- TGI (HOP-62 NSCLC): 3050 nM
- GI50 (SNB-75 CNS): 1540 nM
- TGI (SNB-75 CNS): 2950 nM
- GI50 (RXF 393 renal): 636 nM
- TGI (RXF 393 renal): 1860 nM
- GI50 (SW-620 colon): 535 nM
- TGI (SW-620 colon): 1940 nM
- GI50 (NCI-H23 lung): 2690 nM
- TGI (NCI-H23 lung): 8040 nM
- GI50 (EKVX NSCLC): 2740 nM
- TGI (EKVX NSCLC): 10500 nM
- GI50 (OVCAR-8 ovarian): 1940 nM
- TGI (OVCAR-8 ovarian): 4570 nM
- GI50 (786-0 renal): 804 nM
- TGI (786-0 renal): 2090 nM
- GI50 (HS 578T breast): 2260 nM
- TGI (HS 578T breast): 5310 nM
- GI50 (SK-MEL-2 melanoma): 1760 nM
- TGI (SK-MEL-2 melanoma): 3420 nM
- GI50 (SF-295 CNS): 8150 nM
- TGI (SF-295 CNS): 23100 nM
- GI50 (UO-31 renal): 1510 nM
- TGI (UO-31 renal): 3080 nM
- GI50 (SNB-19 CNS): 3360 nM
- TGI (SNB-19 CNS): 12000 nM
- GI50 (HT29 colon): 477 nM
- TGI (HT29 colon): 1990 nM
- GI50 (HCT-116 colon): 240 nM
- TGI (HCT-116 colon): 743 nM
- GI50 (SK-OV-3 ovarian): 5840 nM
- TGI (SK-OV-3 ovarian): 18400 nM
- GI50 (UACC-257 melanoma): 1430 nM
- TGI (UACC-257 melanoma): 2830 nM
- GI50 (MDA-MB-435): 1720 nM
- TGI (MDA-MB-435): 3330 nM
- GI50 (COLO 205 colon): 616 nM
- TGI (COLO 205 colon): 2030 nM
- GI50 (NCI/ADR-RES ovarian): 2870 nM
- TGI (NCI/ADR-RES ovarian): > 100000 nM
- GI50 (RPMI-8226 leukemia): 1540 nM
- TGI (RPMI-8226 leukemia): 5010 nM
- GI50 (MDA-MB-231 breast): 1710 nM
- TGI (MDA-MB-231 breast): 3240 nM
- GI50 (K-562 leukemia): 725 nM
- TGI (K-562 leukemia): 10900 nM
- GI50 (TK-10 renal): 1800 nM
- TGI (TK-10 renal): 3650 nM
- GI50 (MOLT-4 leukemia): 831 nM
- TGI (MOLT-4 leukemia): 5820 nM
- GI50 (UACC-62 melanoma): 1310 nM
- TGI (UACC-62 melanoma): 2640 nM
- GI50 (NCI-H460 lung): 2160 nM
- TGI (NCI-H460 lung): 4990 nM
- GI50 (IGROV1 ovarian): 1230 nM
- TGI (IGROV1 ovarian): 7250 nM
- GI50 (CCRF-CEM leukemia): 459 nM
- TGI (CCRF-CEM leukemia): 5780 nM
- GI50 (ACHN renal): 1040 nM
- TGI (ACHN renal): 2300 nM
- GI50 (SR leukemia): 639 nM
- TGI (SR leukemia): 5860 nM
- GI50 (OVCAR-4 ovarian): 1780 nM
- TGI (OVCAR-4 ovarian): 3160 nM

Structure (SMILES): NC(=O)c1ncn(CC2(CO)CCC2)c1N
- GI50 (SNB-75 CNS): 10800 nM

Structure (SMILES): CN(C)c1ccc(-c2ccc(-c3ccc(C(=N)N)c(F)c3)s2)cc1
- GI50 (A498 renal): 14.9 nM
- TGI (A498 renal): 1150 nM
- GI50 (DU-145 prostate): 1650 nM
- TGI (DU-145 prostate): 3180 nM
- GI50 (OVCAR-3 ovarian): 1940 nM
- TGI (OVCAR-3 ovarian): 3590 nM
- GI50 (HOP-92 NSCLC): 1400 nM
- TGI (HOP-92 NSCLC): 3030 nM
- GI50 (M14 melanoma): 1740 nM
- TGI (M14 melanoma): 3390 nM
- GI50 (SW-620 colon): 1480 nM
- TGI (SW-620 colon): 3070 nM
- GI50 (OVCAR-8 ovarian): 2230 nM
- TGI (OVCAR-8 ovarian): 5380 nM
- GI50 (786-0 renal): 1870 nM
- TGI (786-0 renal): 3490 nM
- GI50 (UO-31 renal): 1540 nM
- TGI (UO-31 renal): 3050 nM
- GI50 (HCT-116 colon): 1170 nM
- TGI (HCT-116 colon): 2600 nM
- GI50 (MDA-MB-435): 1650 nM
- TGI (MDA-MB-435): 3170 nM
- GI50 (CAKI-1 renal): 1590 nM
- TGI (CAKI-1 renal): 3110 nM
- GI50 (RPMI-8226 leukemia): 1910 nM
- TGI (RPMI-8226 leukemia): 4480 nM
- GI50 (K-562 leukemia): 258 nM
- TGI (K-562 leukemia): 699 nM
- GI50 (UACC-62 melanoma): 1830 nM
- TGI (UACC-62 melanoma): 3660 nM
- GI50 (NCI-H460 lung): 1770 nM
- TGI (NCI-H460 lung): 3370 nM
- GI50 (CCRF-CEM leukemia): 329 nM
- TGI (CCRF-CEM leukemia): 1260 nM
- GI50 (SR leukemia): 244 nM
- TGI (SR leukemia): 692 nM
- GI50 (OVCAR-4 ovarian): 1870 nM
- TGI (OVCAR-4 ovarian): 3500 nM
